We go through two compounds from US12116356B2, “N-heterocyclic five-membered ring-containing capsid protein assembly inhibitor, pharmaceutical composition thereof, and use thereof” (CHIA TAI TIANQING PHARMACEUTICAL GROUP CO., LTD., priority 2018, dated 2024).

The structures appear in SMILES notation. Values after ≈ are worked out from the molar mass of the structure shown.

One data set deals with HBV DNA in HepAD38 cells. The data set can be described thus: In vitro cell HBV DNA inhibitory activity (anti-HBV activity) in HepAD38 cells. The class given is cell-based. Conditions: Hepatitis B virus, 144 h; anti-HBV activity in HepAD38 cells, 6 days treatment, intracellular capsid HBV DNA by qPCR; read-out: EC50. The procedure, abridged:
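HepG2.2.15 or HepAD38 cells on collagen-coated plates were grown 48 h, then treated 6 days with 10-point two-fold compound dilutions, with medium and compound refreshed every 72 h. Intracellular capsid HBV DNA quantified by real-time qPCR. EC50 from Ct-based inhibition by four-parameter fit.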
A general note: Real-time PCR tracks product formation cycle by cycle.

The nature of data set [1]: Solubility in PBS buffer at pH 7.4. The class given is physicochemical. Conditions: aqueous buffer, PBS buffer pH 7.4, 25° C. How it is done:
[…] After standing at 25° C. for 16 hours, the system was centrifugated (12000 rpm, room temperature) for 10 min. 20 μL of the supernatant was taken out, and the reaction was terminated with 400 μL of acetonitrile containing an internal standard (diazepam 20 ng/mL). 30 μL of the supernatant was pipetted, and 150 μL of 50% acetonitrile aqueous solution was added thereto for dilution and mixed uniformly. 0.5 μL of the resulting solution was injected for analysis.

Data set [2] can be described thus: In vivo pharmacokinetics (PK) study in rats. Also on record: species or system SD rats. The protocol: SD rats, weighing 180˜220 g, were randomly divided into groups of three […] each after 3 to 5 days' acclimatization, and a series of the compounds were administered intragastrically to each group at a dose of 20 mg/kg.
The test animals (SD rats) were fasted for 12 hours before administration and fed 4 hours after the administration. They were free to access water before and after the experiment.
After the administration, about 0.2 mL of blood from the orbits was collected at 0 min, 15 min, 30 min, 1 h, 2 h, 4 h, 6 h, 8 h, 10 h, 24 h, 30 h, and 48 h. Within 30 minutes after anticoagulation with EDTA-K2, the plasma was separated by centrifugation at 4° C. and 4000 rpm for 10 minutes. Immediately after collecting all plasma, it was stored at −20° C. for testing.
50 μL of the plasma sample to be tested and standard curve sample were pipetted, and then thereto was added 500 μL of an acetonitrile solution containing an internal standard (diazepam 20 mg/mL). The resulting mixture was oscillated and mixed uniformly for 5 min, and then centrifugated at 12000 rpm for 10 min. 75 μL supernatant was pipetted, and 75 μL ultrapure water was added thereto for dilution, and mixed evenly. 1 μL of the resulting solution was pipetted for LC/MS/MS determination.

The nature of data set [3]: Stability of human liver microsomes in vitro. It is filed as in vitro ADME. The protocol: 300 μL of a final incubation system contains 30 μL of liver microsomes (protein concentration: 0.15 mg/mL), 30 μL NADPH+MgCl2, 3 μL substrate (formulated with acetonitrile), and 237 μL PBS buffer. Duplicate incubation systems of 0.3 mL each were formulated for each species. A total volume of 270 μL of a uniformly mixed solution of the substrate and the enzyme was formulated in each tube, the solution and NADPH were pre-incubated at 37° C. for 5 minutes, respectively. Then 30 μL of the mixed solution of NADPH+MgCl2 was added for reaction. 50 μL of the reaction solution was taken out at 0, 10, 30, and 60 mins, and the reaction was terminated with 300 μL of ice acetonitrile containing an internal standard.
Sample pre-treatment: To 50 μL of the incubated sample was added 300 μL of ice acetonitrile containing diazepam as an internal standard and then precipitated. After vortexing for 5 minutes, the sample was centrifugated (12000 rpm, 4° C.) for 10 minutes. 75 μL of the supernatant was pipetted into a 96-well plate, and then diluted with 75 μL ultrapure water and mixed uniformly. 0.5 μL of the resulting solution was injected and analyzed by LC-MS/MS.
In general terms: Liver microsomes are a subcellular fraction often used to study metabolism.

Data set [4] is described as follows: In vivo pharmacokinetics (PK) study in rats. Also on record: species or system SD rats. Conditions: rat.
Data set [5] can be described thus: In vivo pharmacokinetic (PK) study in Beagle dog. Also on record: species or system Beagle dogs. How it is done:
Beagle dogs, weighing 9 to 11 kg, were randomly divided into two groups of 3 dogs each, compound 12 was given by intragastric administration to each group at a dose of 5 mg/kg.
The test animals (Beagle dogs) were fasted for 12 hours before the administration, and fed 4 hours after the administration. They were free to access water before and after the experiment.
After the intragastric administration, about 0.5 mL of whole blood was collected from the veins of the left forelimb in an EDTA-K2 anticoagulated vacuum blood collection tube at 0 min, 15 min, 30 min, 1 h, 2 h, 4 h, 6 h, 8 h, 10 h, 24 h, 48 h, and 72 h. Within 30 minutes after collection, the plasma was separated by centrifugation at 4° C. and 4000 rpm for 10 minutes. Immediately after collecting all plasma, it was stored at −20° C. for testing.
50 μL of the plasma sample to be tested and standard curve sample were pipetted, and then thereto was added 500 μL of an acetonitrile solution containing an internal standard (diazepam 20 mg/mL). The resulting mixture was oscillated and mixed uniformly for 5 min, and then centrifugated at 12000 rpm for 10 min, 75 μL of the supernatant was pipetted, and 75 μL of ultrapure water was added for dilution and mixed evenly. 1 μL of the resulting solution was pipetted for LC/MS/MS determination.

Setting [6] is: rat, plasma, SD rats, PO 20 mg/kg.
The mark [7] stands for this setting: plasma, Beagle dogs, PO 5 mg/kg.

For `Cc1c(C(=O)Nc2ccc(F)c(C#N)c2)c(C)n(C)c1C(=O)C(=O)NC1(C(F)(F)F)COC1` [Example 25, N-(3-cyano-4-fluorophenyl)-1,2,4-trimethyl-5-(2-oxo-2-((3-(trifluoromethyl)oxetan-3-yl)amino)acetyl)-1H-pyrrole-3-carboxamide], the EC50 in the data set on HBV DNA in HepAD38 cells is less than 10 nM.

As to `Cc1c(C(=O)Nc2ccc(F)c(C#N)c2)c(C)n(C)c1C(=O)C(=O)N[C@@H](C)C(F)(F)F` [Example 12], the solubility at 16 h in data set [1] came to 8.1 µM (≈ 3.55 µg/mL). The compound also yielded a F in data set [2] (SD rats, PO 20 mg/kg vs IV 5 mg/kg) of 57%. Also, the half-life is 219 min in data set [2] (SD, rat, in vivo, po, 20 mg/kg); 205 min in data set [4] (SD, in vivo, iv, 5 mg/kg); 4.38 days in data set [5] (Beagle, in vivo, po, 5 mg/kg). Further, the AUC(0-inf) in data set [2] (setting [6]) amounted to 62300 ng·h/mL; in data set [4] (plasma, SD rats, IV 5 mg/kg), 27100 ng·h/mL; in data set [5] (setting [7]) it was 162 µg·h/mL. Also, the maximum concentration (Cmax) in data set [2] (setting [6]) was determined as 5020 ng/mL; in data set [4] (plasma, SD rats, IV 5 mg/kg), 6270 ng/mL; in data set [5] (setting [7]) it was 1280 ng/mL. Moreover, the AUC(0-t) in data set [2] (rat, plasma, SD rats, PO 20 mg/kg, read-out: AUC(0-48 h)) is 62000 ng·h/mL; in data set [4] (plasma, SD rats, IV 5 mg/kg, read-out: AUC(0-48 h)), 27100 ng·h/mL; in data set [5] (plasma, Beagle dogs, PO 5 mg/kg, read-out: AUC(0-72 h)), 61900 ng·h/mL. In addition, in data set [3], the “Remaining (%) at 60 min” value turned out to be 78.8%. For the same compound, the EC50 with HBV DNA in HepAD38 cells was less than 10 nM. This compound also gave a clearance in data set [4] (plasma, SD rats, IV 5 mg/kg) of 3.1 mL/min/kg. Moreover, the Vd in data set [4] (plasma, SD rats, IV 5 mg/kg, read-out: Vz) amounted to 0.914 L/kg. Moreover, the Tmax in data set [5] (setting [7]) came to 1.67 h. The MRT last in data set [5] (plasma, Beagle dogs, PO 5 mg/kg, read-out: MRT(0-t)) was determined as 32.9 h.

In general, EC50 refers to the concentration giving half of the maximal effect. In general, solubility refers to the dissolved amount per volume that the medium holds. A word on the half-life: it is how long it takes for the measured level to halve. Usually AUC(0-inf) stands for total exposure, with the tail of the curve extrapolated. In general, Cmax refers to the maximum level reached in the sampled fluid or tissue. As a reminder, the clearance is the volume of plasma or blood freed of the substance per unit of time. Read a low clearance as a low capacity for elimination. For orientation: Tmax means the time from dosing to the highest level.
